Experiments:
bacteria [1] = conditions: properties of oxychloro species; cited from earlier work
bacteria [2] = assay: Antimicrobial activity of oxychloro species (general properties); conditions: treated water, component of the formulation
Text: The potency and longevity of biocidal activity for this formulation is controlled by varying the ratios of chlorate and acid which provide different profiles of the antimicrobial activities.

Row | Compound | Biocidal potency (bacteria [1]) | time range of antimicrobial impact / longevity (bacteria [2])
1 | [O-][Cl+2]([O-])O [ClO3^−, Chlorate ion] | low | 
2 | [Na+].[O-][Cl+2]([O-])[O-] [sodium chlorate] |  | weeks to months
3 | Chlorine dioxide [ClO2] |  | within seconds
4 | sodium chlorite |  | hours to days

From US11572296B1, “Method for extending time of activity of chlorite-based biocides” (priority 2020, dated 2023)
